Inhibition and IC50 data for five molecules are collected here from patent publication US20250368649A1, “TETRAHYDROPYRIDOPYRIMIDINE PAN-KRAS INHIBITORS” (Mirati Therapeutics, Inc., priority 2022, published 2025).

Assay [1] has as its target KRas G12A (Homo sapiens, UniProt P01116, G12A). In kind it is binding. The conditions noted are these: single point, 10 nM compound, read-out: Binding to KRas (% inhibition at 10 nM) G12A.
For assay [2], the target named is KRas Q61H (Homo sapiens, UniProt P01116, Q61H). Briefly: KRas binding assay (TR-FRET displacement), KRas Q61H. The note with it: single point, 10 nM compound. (In general: Time-resolved FRET reads energy transfer from a long-lived donor to a nearby acceptor.)
KRas Q61H, sequence (P01116 1-169 isoform P01116-2 Q61H): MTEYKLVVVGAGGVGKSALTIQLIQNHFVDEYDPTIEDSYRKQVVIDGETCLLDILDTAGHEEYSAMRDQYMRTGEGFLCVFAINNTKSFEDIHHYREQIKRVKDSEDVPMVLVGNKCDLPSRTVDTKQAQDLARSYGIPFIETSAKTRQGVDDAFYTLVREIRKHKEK
Assay [3] concerns H727 cells. Briefly: Inhibition of KRas-mediated phosphorylation of ERK (Cisbio HTRF pERK), H727 cells. It counts as cell-based. The conditions noted are these: Homo sapiens; for IC50: NCI-H727, 3 h, 3 hr compound incubation, Cisbio pERK HTRF; for inhibition at 0.1 µM: NCI-H727, single point at 100 nM, 3 hrs compound incubation.
The subject of assay [4] is PSN1 cells. Briefly: Inhibition of KRas-mediated phosphorylation of ERK (Cisbio HTRF pERK), PSN1 cells. In kind it is cell-based. The conditions noted are these: Homo sapiens, PSN1, 3 h, 3 hour compound incubation, Cisbio pERK HTRF. The method in brief:
(§1)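 Seeding density of 6,000 cells per well was used, with cultures kept in RPMI/10% FBS from day 1.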

The target of assay [5] is KRas G12D (Homo sapiens, UniProt P01116, G12D). Nature of the assay: biochemical. The conditions noted are these: Binding to KRas (IC50 nM) G12D, TR-FRET displacement, KRas G12D.
KRas G12D, sequence (P01116 1-169 isoform P01116-2 G12D): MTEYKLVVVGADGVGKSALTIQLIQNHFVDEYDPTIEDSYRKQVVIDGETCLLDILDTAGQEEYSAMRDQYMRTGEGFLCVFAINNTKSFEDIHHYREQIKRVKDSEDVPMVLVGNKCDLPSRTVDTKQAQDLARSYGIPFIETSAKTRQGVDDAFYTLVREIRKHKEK
The target in assay [6] is KRas WT (Homo sapiens, UniProt P01116). Briefly: KRas binding assay (TR-FRET displacement), KRas WT. The note with it: single point, 10 nM compound.
KRas WT, sequence (P01116 1-169 isoform P01116-2): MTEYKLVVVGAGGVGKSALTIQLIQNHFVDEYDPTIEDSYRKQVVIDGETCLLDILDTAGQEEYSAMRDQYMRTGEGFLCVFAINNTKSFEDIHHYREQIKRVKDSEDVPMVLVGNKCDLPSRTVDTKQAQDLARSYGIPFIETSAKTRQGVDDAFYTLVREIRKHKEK
Assay [7] has as its system H358 cells. Nature of the assay: Inhibition of KRas-mediated phosphorylation of ERK (Cisbio HTRF pERK), H358 cells. In kind it is cell-based. The note with it: Homo sapiens; for inhibition at 0.1 µM: NCI-H358, single point at 100 nM, 3 hrs compound incubation.
For assay [8], the target named is KRas G12R (Homo sapiens, UniProt P01116, G12R). Nature of the assay: biochemical. The note with it: Binding to KRas (IC50 nM) G12R, TR-FRET displacement, KRas G12R.
KRas G12R, sequence (P01116 1-169 isoform P01116-2 G12R): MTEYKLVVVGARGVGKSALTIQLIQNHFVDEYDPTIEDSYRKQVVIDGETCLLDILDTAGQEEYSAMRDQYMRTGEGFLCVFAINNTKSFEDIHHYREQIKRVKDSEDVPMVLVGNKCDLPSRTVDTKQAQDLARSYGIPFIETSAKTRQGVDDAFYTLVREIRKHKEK
Assay [9] deals with HCT116 cells. Briefly: Inhibition of KRas-mediated phosphorylation of ERK (Cisbio HTRF pERK), HCT116 cells. In kind it is cell-based. The conditions noted are these: Homo sapiens; for inhibition at 0.1 µM: HCT-116, single point at 100 nM, 3 hrs compound incubation.
The target in assay [10] is KRas G13D (Homo sapiens, UniProt P01116, G13D). In kind it is binding. The conditions noted are these: single point, 10 nM compound, read-out: Binding to KRas (% inhibition at 10 nM) G13D.
KRas G13D, sequence (P01116 1-169 isoform P01116-2 G13D): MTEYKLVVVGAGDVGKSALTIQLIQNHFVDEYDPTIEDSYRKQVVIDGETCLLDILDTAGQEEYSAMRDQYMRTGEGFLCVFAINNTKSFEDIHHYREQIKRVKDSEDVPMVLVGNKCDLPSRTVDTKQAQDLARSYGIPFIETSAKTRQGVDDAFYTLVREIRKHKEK
The subject of assay [11] is MKN1 cells. Nature of the assay: Inhibition of KRas-mediated phosphorylation of ERK (Cisbio HTRF pERK), MKN1 cells. In kind it is cell-based. The note with it: Homo sapiens, MKN-1, 3 hour compound incubation, Cisbio pERK HTRF. The essentials: as §1
The test system of assay [12] is ASPC1 cells. Nature of the assay: Inhibition of KRas-mediated phosphorylation of ERK (Cisbio HTRF pERK), ASPC1 cells. It counts as cell-based. The note with it: Homo sapiens, AsPC-1 cells; for IC50: ASPC1, 3 h, 3 hr compound incubation, Cisbio pERK HTRF; for inhibition at 0.1 µM: ASPC1, single point at 100 nM, 3 hrs compound incubation.
Assay [13] addresses KRas G12C (Homo sapiens, UniProt P01116, G12C). In kind it is binding. The note with it: single point, 10 nM compound, read-out: Binding to KRas (% inhibition at 10 nM) G12C.
Assay [14] has as its system H460 cells. Briefly: Inhibition of KRas-mediated phosphorylation of ERK (Cisbio HTRF pERK), H460 cells. It counts as cell-based. The conditions noted are these: Homo sapiens; for inhibition at 0.1 µM: NCI-H460, single point at 100 nM, 3 hrs compound incubation.
The subject of assay [15] is A549 cells. Briefly: Inhibition of KRas-mediated phosphorylation of ERK (Cisbio HTRF pERK), A549 cells. The conditions noted are these: Homo sapiens; for inhibition at 0.1 µM: single point at 100 nM, 3 hrs compound incubation. It counts as cell-based.
Assay [16] has as its target KRas G12V (Homo sapiens, UniProt P01116, G12V). Nature of the assay: biochemical. The note with it: Binding to KRas (IC50 nM) G12V, TR-FRET displacement, KRas G12V.
Assay [17] has as its target KRas G12S (Homo sapiens, UniProt P01116, G12S). It counts as binding. The conditions noted are these: single point, 10 nM compound, read-out: Binding to KRas (% inhibition at 10 nM) G12S.

KRas G12A, sequence (P01116 1-169 isoform P01116-2 G12A): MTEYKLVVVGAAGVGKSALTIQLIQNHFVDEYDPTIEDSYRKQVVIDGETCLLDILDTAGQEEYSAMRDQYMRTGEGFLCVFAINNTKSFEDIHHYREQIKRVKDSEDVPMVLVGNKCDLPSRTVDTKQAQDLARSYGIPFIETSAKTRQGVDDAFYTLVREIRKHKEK
KRas G12V, sequence (P01116 1-169 isoform P01116-2 G12V): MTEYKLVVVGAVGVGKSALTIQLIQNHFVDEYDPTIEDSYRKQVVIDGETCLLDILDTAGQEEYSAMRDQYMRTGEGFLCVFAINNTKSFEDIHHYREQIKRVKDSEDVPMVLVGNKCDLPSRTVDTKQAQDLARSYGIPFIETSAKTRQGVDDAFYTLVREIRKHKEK
KRas G12S, sequence (P01116 1-169 isoform P01116-2 G12S): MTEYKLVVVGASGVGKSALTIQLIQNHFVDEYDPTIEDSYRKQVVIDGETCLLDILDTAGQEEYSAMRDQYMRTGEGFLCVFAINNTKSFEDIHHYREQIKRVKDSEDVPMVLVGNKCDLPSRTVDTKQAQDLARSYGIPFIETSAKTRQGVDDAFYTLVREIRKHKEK
KRas G12C, sequence (P01116 1-169 isoform P01116-2 G12C): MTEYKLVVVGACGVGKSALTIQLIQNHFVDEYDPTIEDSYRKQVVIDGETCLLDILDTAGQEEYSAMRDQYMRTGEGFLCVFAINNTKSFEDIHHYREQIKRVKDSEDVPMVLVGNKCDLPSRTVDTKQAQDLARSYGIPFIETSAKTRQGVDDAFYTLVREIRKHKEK

For the molecule `CCc1c(F)ccc2cc(O)cc(N3CCc4c(nc(OC[C@@]56CCCN5C[C@H](F)C6)nc4N4CCCn5nc(C(=O)N6CCN7CCC6C7)cc5C4)C3)c12` (stereo partly drawn) [Example 259, (1,4-diazabicyclo[3.2.1]octan-4-yl)(5-(7-(8-ethyl-7-fluoro-3-hydroxynaphthalen-1-yl)-2-(((2R,7aS)-2-fluorotetrahydro-1H-pyrrolizin-7a(5H)-yl)methoxy)-5,6,7,8-tetrahydropyrido[3,4-d]pyrimidin-4-yl)-5,6,7,8-tetrahydro-4H-pyrazolo[1,5-a][1,4]diazepin-2-yl)methanone], the inhibition (as a rule, the change of the read-out against control, counted positive when it falls) at 0.01 µM came to 94% in assay [1]; 96% in [2]; 94% in [6]; 96% in assay [10]; 97% in assay [13]; 98% in assay [17]. Also, the IC50 (as a rule, the concentration that gives 50% inhibition) in assay [3] is 287 nM; in assay [4], 3940 nM; in assay [5] it was below 2 nM; in [8] it was below 2 nM; in [11] it was 3.3 nM; in [12] it was 32 nM. This molecule yielded an IC50 in assay [16] below 2 nM. In addition, the inhibition at 0.1 µM is 29% in [3]; 66% in assay [7]; -11% in [9]; 79% in assay [12]; 14% in [14]; 6% in [15].

Turning to `CCc1c(F)ccc2cc(O)cc(N3CCc4c(nc(OC[C@@]56CCCN5C[C@H](F)C6)nc4N4CCCn5nc(C(=O)N6CC7CCC6CN7C)cc5C4)C3)c12` (stereo partly drawn) [Example 260, (5-(7-(8-ethyl-7-fluoro-3-hydroxynaphthalen-1-yl)-2-(((2R,7aS)-2-fluorohexahydro-1H-pyrrolizin-7a-yl)methoxy)-5,6,7,8-tetrahydropyrido[3,4-d]pyrimidin-4-yl)-5,6,7,8-tetrahydro-4H-pyrazolo[1,5-a][1,4]diazepin-2-yl)(5-methyl-2,5-diazabicyclo[2.2.2]octan-2-yl)methanone], the inhibition at 0.01 µM came to 97% in assay [1]; 98% in assay [2]; 98% in assay [6]; 98% in assay [10]; 99% in assay [13]; 99% in [17]. Moreover, the IC50 in assay [3] is 8 nM; in assay [4] it was above 10000 nM; in assay [5], below 2 nM; in assay [7] (NCI-H358, 3 h, 3 hr compound incubation, Cisbio pERK HTRF), 17 nM; in [8] it was below 2 nM; in assay [9] (HCT-116, 3 h, 3 hr compound incubation, Cisbio pERK HTRF) it was 151 nM. For the same molecule, the IC50 in [11] was 29.2 nM; in assay [12] it was 2 nM; in assay [14] (NCI-H460, 3 h, 3 hr compound incubation, Cisbio pERK HTRF), 102 nM; in assay [15] (A549, 3 h, 3 hr compound incubation, Cisbio pERK HTRF), 53 nM; in assay [16], below 2 nM. For the same molecule, the inhibition at 0.1 µM in assay [3] turned out to be 54%; in assay [7], 97%; in assay [9] it was 29%; in assay [12], 98%; in assay [14], 38%; in assay [15] it was 73%.

In the case of `CCc1c(F)ccc2cc(O)cc(N3CCc4c(nc(OC[C@@]56CCCN5C[C@H](F)C6)nc4N4CCCn5nc(C(=O)N6CC7CC6CN7C)cc5C4)C3)c12` (stereo partly drawn) [Example 261, (5-(7-(8-ethyl-7-fluoro-3-hydroxynaphthalen-1-yl)-2-(((2R,7aS)-2-fluorohexahydro-1H-pyrrolizin-7a-yl)methoxy)-5,6,7,8-tetrahydropyrido[3,4-d]pyrimidin-4-yl)-5,6,7,8-tetrahydro-4H-pyrazolo[1,5-a][1,4]diazepin-2-yl)(5-methyl-2,5-diazabicyclo[2.2.1]heptan-2-yl)methanone], the inhibition at 0.01 µM in assay [1] came to 98%; in [2] it was 96%; in assay [6], 97%; in assay [10], 97%; in assay [13] it was 99%; in assay [17], 99%. Besides, the 50% inhibitory concentration (IC50) is 63 nM in assay [3]; above 10000 nM in [4]; below 2 nM in assay [5]; below 2 nM in [8]; 57.4 nM in [11]; 23 nM in [12]. The molecule also displayed a concentration for half-maximal inhibition (IC50) in [16] below 2 nM. Also, the inhibition at 0.1 µM in assay [3] was found to be 29%; in [7] it was 88%; in assay [9], 15%; in assay [12] it was 89%; in [14], 37%; in [15] it was 40%.

In the case of `CCc1c(F)ccc2cc(O)cc(N3CCc4c(nc(OC[C@@]56CCCN5C[C@H](F)C6)nc4N4CCCn5nc(C(=O)N6CC7CC(C6)N7C)cc5C4)C3)c12` [Example 262], the inhibition at 0.01 µM in assay [1] worked out at 95%; in assay [2], 96%; in assay [6], 95%; in [10] it was 97%; in assay [13], 99%; in [17] it was 98%. For the same molecule, the IC50 was 78 nM in assay [3]; above 10000 nM in assay [4]; below 2 nM in [5]; below 2 nM in [8]; 56 nM in [11]; 14 nM in assay [12]. For the same molecule, the IC50 in [16] was below 2 nM. In addition, the inhibition at 0.1 µM in [3] stood at 38%; in [7], 91%; in [9], 16%; in assay [12] it was 94%; in assay [14], 21%; in assay [15], 47%.

Turning to `CCc1c(F)ccc2cc(O)cc(N3CCc4c(nc(OC[C@@]56CCCN5C[C@H](F)C6)nc4N4CCCn5nc(C(=O)N6CC7CCC(C6)N7)cc5C4)C3)c12` [Example 265, 3,8-diazabicyclo[3.2.1]octan-3-yl(5-(7-(8-ethyl-7-fluoro-3-hydroxynaphthalen-1-yl)-2-(((2R,7aS)-2-fluorohexahydro-1H-pyrrolizin-7a-yl)methoxy)-5,6,7,8-tetrahydropyrido[3,4-d]pyrimidin-4-yl)-5,6,7,8-tetrahydro-4H-pyrazolo[1,5-a][1,4]diazepin-2-yl)methanone], the inhibition at 0.01 µM was 97% in assay [1]; 97% in assay [2]; 98% in assay [6]; 99% in assay [10]; 100% in assay [13]; 99% in assay [17]. Moreover, the 50% inhibitory concentration (IC50) was 217 nM in [3]; above 10000 nM in [4]; below 2 nM in assay [5]; below 2 nM in assay [8]; 23.1 nM in [11]; 31 nM in assay [12]. In assay [16], this molecule gave a half-maximal inhibitory concentration (IC50) below 2 nM. Further, the inhibition at 0.1 µM is 40% in assay [3]; 60% in assay [7]; 16% in assay [9]; 63% in [12]; -4% in assay [14]; 32% in [15].
